The source of these data is ChEMBL document CHEMBL1800013, “Small molecule inhibitors of SHP2 tyrosine phosphatase discovered by virtual screening” (Bioorg Med Chem Lett, 2011).

The source made the active and inactive calls. The calls are words filed in the database; no cut-off is given here.

Sequence of Tyrosine-protein phosphatase non-receptor type 6 (P29350 whole entry): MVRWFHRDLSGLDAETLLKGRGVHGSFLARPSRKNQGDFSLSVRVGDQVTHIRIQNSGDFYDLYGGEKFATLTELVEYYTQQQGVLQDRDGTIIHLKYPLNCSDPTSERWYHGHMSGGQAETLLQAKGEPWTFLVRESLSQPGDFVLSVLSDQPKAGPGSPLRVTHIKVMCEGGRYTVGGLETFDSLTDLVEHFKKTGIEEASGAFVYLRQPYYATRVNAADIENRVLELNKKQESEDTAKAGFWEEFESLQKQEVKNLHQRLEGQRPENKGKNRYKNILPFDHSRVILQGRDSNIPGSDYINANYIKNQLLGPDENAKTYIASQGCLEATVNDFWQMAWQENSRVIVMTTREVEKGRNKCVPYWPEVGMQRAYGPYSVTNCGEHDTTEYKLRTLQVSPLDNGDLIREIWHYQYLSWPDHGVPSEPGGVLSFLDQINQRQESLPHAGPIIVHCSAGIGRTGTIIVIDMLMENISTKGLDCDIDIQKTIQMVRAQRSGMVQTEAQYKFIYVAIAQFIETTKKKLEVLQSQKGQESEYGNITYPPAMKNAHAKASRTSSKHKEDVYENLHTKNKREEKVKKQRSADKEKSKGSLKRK

One experiment concerns the target T1, Tyrosine-protein phosphatase non-receptor type 11 (Homo sapiens) (UniProt Q06124).
T1 sequence (whole entry): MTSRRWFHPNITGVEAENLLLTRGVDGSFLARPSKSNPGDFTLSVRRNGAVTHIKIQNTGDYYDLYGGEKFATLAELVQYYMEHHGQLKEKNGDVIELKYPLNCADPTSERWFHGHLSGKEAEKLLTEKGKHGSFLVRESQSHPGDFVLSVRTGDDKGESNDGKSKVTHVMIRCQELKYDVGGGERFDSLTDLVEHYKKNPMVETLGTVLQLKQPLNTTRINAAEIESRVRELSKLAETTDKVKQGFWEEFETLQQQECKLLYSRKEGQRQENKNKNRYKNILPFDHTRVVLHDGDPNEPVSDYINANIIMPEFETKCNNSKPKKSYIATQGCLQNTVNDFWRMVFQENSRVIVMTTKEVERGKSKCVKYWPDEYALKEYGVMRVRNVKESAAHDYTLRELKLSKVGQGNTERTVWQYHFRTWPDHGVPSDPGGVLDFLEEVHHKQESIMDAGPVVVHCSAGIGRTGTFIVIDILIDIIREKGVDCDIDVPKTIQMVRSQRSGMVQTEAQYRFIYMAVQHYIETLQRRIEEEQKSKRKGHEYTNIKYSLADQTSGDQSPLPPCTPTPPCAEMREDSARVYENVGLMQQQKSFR
The experiment is described as follows: Inhibition of SHP2 catalytic domain assessed as inhibition of pNPP to p-nitrophenol conversion at 50 uM after 5 mins by spectrophotometry.
As for `CC(=O)N(c1ccc2oc3c(c2c1)CCCC3)S(=O)(=O)c1ccc(C(=O)O)cc1`, the inhibition was 74.5%.

As for `O=C(O)c1ccc(NC(=O)C2CC=CCC2C(=O)O)cc1O` (centres undefined), the inhibition stood at 4.5%.

`Cc1ccc(/C=C/C(=O)O)cc1S(=O)(=O)Nc1ccc(C(=O)O)cc1`: the inhibition is 28%.

On to `O=C(O)c1ccccc1NS(=O)(=O)c1cccc(C(=O)N2CCCc3ccccc32)c1`, for which the inhibition worked out at 47%.

On to `O=C(O)c1ccc(CNS(=O)(=O)c2ccc(C(=O)O)cc2)cc1`, for which the inhibition worked out at 40.5%.

For the compound `CS(=O)(=O)N(CC(=O)Nc1ccccc1C(=O)O)c1ccc(F)cc1`, the inhibition amounted to 24%.

For the compound `O=C(O)c1cccc(-c2ccc(/C=C/[N+](=O)[O-])o2)c1`, the inhibition was found to be 95%.

In the case of `O=C(O)c1ccccc1NC(=O)c1ccccc1-c1ccccc1C(=O)O`, the inhibition turned out to be 38%.

In the case of `O=C(O)c1cc(S(=O)(=O)Nc2ccccc2C(=O)O)ccc1Br`, the inhibition turned out to be 4.5%.

In the case of `COc1ccc(/C=C2\C(=O)N(c3ccc(C(=O)O)cc3)N=C2C)cc1[N+](=O)[O-]`, the inhibition stood at 41%.

For the compound `O=C(O)c1cccc(NS(=O)(=O)c2ccc(Cl)c(C(=O)O)c2)c1`, the inhibition was 7%.

Regarding `O=C(O)c1ccccc1NS(=O)(=O)c1cccc2nsnc12`, the inhibition turned out to be 0%.

With `O=C(O)c1ccc(C2(c3ccc(C(=O)O)cc3)OC(=O)c3ccccc32)cc1`, the inhibition was found to be 1.5%.

`O=C(CC(Cc1ccccc1)C(=O)O)Nc1ccc([N+](=O)[O-])cc1` (centres undefined): the inhibition came to 1%.

As for `O=[N+]([O-])c1ccc(/C=N/Nc2ccc(S(=O)(=O)O)cc2)cc1`, the inhibition was determined as 91.5%.

As for `O=C(O)Cc1c(C(=O)O)[nH]c2ccc(C(=O)O)cc12`, the inhibition is 1%.

Consider `COc1cc(/C=C2\SC(=S)N(C(CC(=O)O)C(=O)O)C2=O)ccc1O` (centres undefined), for which the inhibition was 69.5%.

Turning to `CC(=O)Nc1ccc(OS(=O)(=O)c2cccc(C(=O)O)c2)cc1`, the inhibition came out at 3.5%.

`O=C(O)c1ccc(/N=N/c2c(O)c(C(=O)O)cc3ccccc23)cc1`: the inhibition turned out to be 8.5%.

In the case of `O=C(O)c1ccc(NS(=O)(=O)c2cc(C(=O)O)ccc2Br)cc1`, the inhibition was found to be 34.5%.

Consider `COc1ccc(C2Nc3ccc(C(=O)O)cc3C3C=CCC32)cc1[N+](=O)[O-]` (centres undefined), for which the inhibition amounted to 1.5%.

As for `CC1CCN(S(=O)(=O)c2ccc3[nH]cc(C(=O)O)c(=O)c3c2)CC1`, the inhibition is 0.5%.

As for `O=C(O)c1cccc(NS(=O)(=O)c2ccc3c4c(cccc24)C(=O)N3)c1`, the inhibition stood at 4.5%.

Take `O=C(O)/C=C/c1cccc(NS(=O)(=O)c2ccc(C(=O)O)cc2)c1`: the inhibition turned out to be 5.5%.

`O=C(O)c1cccc(N/C(=N\S(=O)(=O)c2ccc(Cl)cc2)c2ccccc2)c1`: the inhibition is 10.5%.

Consider `O=C(O)c1cc(N/C(=N\S(=O)(=O)c2ccccc2)c2ccccc2)ccc1O`, for which the inhibition was determined as 12.5%.

`O=C(O)c1ccc(NCc2ccccc2)c(NC(=O)C2CC=CCC2C(=O)O)c1` (centres undefined): the inhibition is 43%.

As for `CC(=O)c1c(C)oc2ccc(NS(=O)(=O)c3cccc(C(=O)O)c3)cc12`, the inhibition turned out to be 71.5%.

Turning to `CCOc1cc(/C=N/Nc2ccc(S(=O)(=O)O)cc2)ccc1O`, the inhibition was 51%.

Turning to `Cc1ccc(C(=O)O)cc1NC(=O)[C@H]1CC=CC[C@@H]1C(=O)O`, the inhibition came out at 6%.

In the case of `O=C(O)Cc1ccc2[nH]c3ccc(CC(=O)O)cc3c2c1`, the inhibition is 52.5%.

In the case of `Cc1ccccc1NS(=O)(=O)c1cccc(C(=O)Nc2ccccc2C(=O)O)c1`, the inhibition came out at 50.5%.

Take `O=C(O)c1ccc(NS(=O)(=O)c2cccc(C(=O)Nc3cccc(C(=O)O)c3)c2)cc1`: the inhibition is 44%.

For the compound `Cc1cc(C(=O)O)ccc1NC(=O)C1CC=CCC1C(=O)O` (centres undefined), the inhibition turned out to be 13%.

A further experiment addresses Tyrosine-protein phosphatase non-receptor type 6 (Homo sapiens, UniProt P29350). The experiment is described as follows: Inhibition of SHP1.
`CC(=O)N(c1ccc2oc3c(c2c1)CCCC3)S(=O)(=O)c1ccc(C(=O)O)cc1` displayed a half-inhibitory concentration (IC50) of 160 µM.

`CC(=O)c1c(C)oc2ccc(NS(=O)(=O)c3cccc(C(=O)O)c3)cc12` had an IC50 of 85 µM.

In a further experiment the target is T2, Tyrosine-protein phosphatase non-receptor type 1 (Homo sapiens, UniProt P18031).
T2 sequence (P18031 whole entry): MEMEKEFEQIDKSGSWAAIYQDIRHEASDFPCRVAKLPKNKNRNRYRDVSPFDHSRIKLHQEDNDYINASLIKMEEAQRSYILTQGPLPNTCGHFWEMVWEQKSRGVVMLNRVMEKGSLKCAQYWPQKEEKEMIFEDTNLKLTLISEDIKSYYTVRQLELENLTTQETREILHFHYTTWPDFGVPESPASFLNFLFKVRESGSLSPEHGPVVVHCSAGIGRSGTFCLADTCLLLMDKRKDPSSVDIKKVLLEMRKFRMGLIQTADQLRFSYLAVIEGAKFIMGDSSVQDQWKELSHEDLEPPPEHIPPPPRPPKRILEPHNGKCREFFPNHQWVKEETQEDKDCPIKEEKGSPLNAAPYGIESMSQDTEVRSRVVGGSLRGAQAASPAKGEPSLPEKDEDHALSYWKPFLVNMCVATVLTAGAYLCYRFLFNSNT
The experiment is described as follows: Inhibition of PTP1B.
Compound `CC(=O)N(c1ccc2oc3c(c2c1)CCCC3)S(=O)(=O)c1ccc(C(=O)O)cc1` had an IC50 of 120 µM.

Take `CC(=O)c1c(C)oc2ccc(NS(=O)(=O)c3cccc(C(=O)O)c3)cc12`: the midpoint of inhibition, the IC50, lay at 38 µM.

The next experiment addresses T3, Tyrosine-protein phosphatase non-receptor type 11 (Homo sapiens, UniProt Q06124).
T3 sequence (Q06124 whole entry): T1 sequence (whole entry)
The experiment is described as follows: Inhibition of SHP2 catalytic domain assessed as inhibition of pNPP to p-nitrophenol conversion after 5 mins by spectrophotometry.
Consider `CC(=O)N(c1ccc2oc3c(c2c1)CCCC3)S(=O)(=O)c1ccc(C(=O)O)cc1`, for which the half-inhibitory concentration (IC50) is 181 µM.

Regarding `CC(=O)c1c(C)oc2ccc(NS(=O)(=O)c3cccc(C(=O)O)c3)cc12`, the IC50 is 176 µM.

For the compound `O=C(O)C1=NN(c2ccc(S(=O)(=O)O)cc2)C(=O)C1`, the 50% inhibitory concentration (IC50) was determined as 155 µM.

Turning to `Cc1cc(S(=O)(=O)O)ccc1N1N=C(C(=O)O)CC1=O`, the IC50 is 41 µM.

The target in the next experiment is T1, Tyrosine-protein phosphatase non-receptor type 11 (Homo sapiens). In words: Inhibition of SHP2 catalytic domain assessed as inhibition of pNPP to p-nitrophenol conversion at 1000 uM after 5 mins by spectrophotometry.
Turning to `O=C(O)C1=NN(c2ccccc2)C(=O)C1`, the inhibition result is “inactive”.

For `CC1=NN(c2ccc(S(=O)(=O)O)cc2C)C(=O)C1`, the inhibition entry is “inactive”.
